# Test results: patent publication US20150140002A1, “USE OF A PCSK9 INHIBITOR TO TREAT […]” (Sanofi, priority 2013, published 2015)
# Where “and” joins values, the source holds several entries; their conditions need not be identical. Equal values may be shown once.
# Columns and labels:
# [1] = tested on: patients with hypercholesterolemia at moderate cardiovascular (CV) risk; test: Example 2: Phase 3 monotherapy trial mAb316P versus ezetimibe, lipid parameters; assay type: in vivo, human; details: for Lp(a) adjusted mean (SE) % change from baseline to week 24 / TGs adjusted mean (SE) % change from baseline to week 24: combined estimate; for LDL-C (on treatment), mean (SD): ezetimibe arm (n = 51); for LDL-C LS mean (SE) change from baseline (%): baseline to Week 24
# Description: Randomization was stratified according to DM status. […] Patients were followed for 8 weeks after the last visit of the Double Blind Treatment Period (DBTP).
# Double-blind treatment period (DBTP)—A randomized, double-blind double dummy study treatment period of 24 weeks. The first injection during the double-blind period was done at the site on the day of randomization (Week 0 [D1]-V3) and as soon as possible after the call to IVRS/IWRS for randomization into the study. The subsequent injections were done by the patient (self-injection) or another designated person (such as spouse, relative, etc.) at a patient-preferred location (home, etc.).
# The primary efficacy endpoint was the percent change in calculated LDL-C from baseline to week 24, which is defined as: 100×(calculated LDL-C value at Week 24−calculated LDL-C value at baseline)/calculated LDL-C value at baseline.
# Total-C, HDL-C, TG, Apo B, Apo A-1, and Lp (a) were directly measured. LDL-C was calculated using the Friedewald formula at all visits (except Week −1 and Follow Up visit). If TG values exceeded 400 mg/dL (4.52 mmol/L) then the central lab reflexively measured (via the beta quantification method) the LDL-C rather than calculating it. Non-HDL-C was calculated by subtracting HDL-C from the total-C. Ratio Apo B/Apo A-1 was calculated.
# The primary endpoint was assessed in the intent-to-treat (ITT) population, which included all randomized patients who had at least 1 calculated LDL-C value at baseline and at one of the planned time points from weeks 4 to 24.
# Missing data were accounted for by means of a mixed effect model with repeated measures (MMRM) approach (Siddiqui et al., MMRM vs. LOCF: a comprehensive comparison based on simulation study and 25 NDA datasets”, J Biopharm Stat, vol. 19, pp. 227-246 (2009); National Research Council, “The Prevention and Treatment of Missing Data in Clinical Trials” Panel on Handling Missing Data in Clinical Trials. Committee on National Statistics, Division of Behavioral and Social Sciences and Education. 2010. Washington, D.C.: The National Academies Press; Andersen et al., “On the practical application of mixed effects models for repeated measures to clinical trial data”, Pharm Stat., vol. 12, pp. 7-16 (2013)). For the ITT analysis, all available measurements at planned time points from weeks 4 to 24 (meaning week 4, 8, 12, 16, and 24), whatever their status on or off-treatment, were used in the MMRM. One MMRM model was used for LDL-C to provide least-squares means estimates and comparison between treatment arms at weeks 24 and 12. Further details on the model are given below. For the on-treatment analysis, all available on-treatment measurements (i.e. up to 21 days after last injection/3 days after last capsule, whichever comes first) at planned time points from weeks 4 to 24 were used in the MMRM model. In the same way as for the ITT analysis, one model was used to provide estimates and comparison at week 24 and week 12 for the on-treatment analysis. Continuous key secondary endpoints other than Lp(a) and triglycerides were analyzed in a similar fashion as the primary endpoint and description of the statistical methodology for secondary endpoints and subgroup analysis is provided below.
# Outputs from the model were the baseline-adjusted least-squares (LS) mean estimates at week 24 for both treatment groups with their corresponding standard error (SE). Appropriate contrast statement was used to test the difference between these estimates at the 2-sided 5% alpha level.
# To analyze the key secondary endpoints, a hierarchical procedure was used to control type I error and handle multiplicity. Secondary efficacy endpoints were tested sequentially using the order given above, in the intent-to-treat population.
# anti-mAb316P antibodies = test: Example 2: anti-mAb316P antibody (ADA) bridging immunoassay and neutralizing antibody assay; assay type: in vivo, human; details: in vivo
# Procedure: Other endpoints Anti-MAb316P Antibody Assessments: Anti-mAb316P antibodies included the antibody status (positive/negative) and antibody titers.
# Sampling time: Serum samples for anti-mAb316P antibody determination were drawn periodically throughout the study. The first scheduled sample at randomization visit was obtained before IMP injection (predose).
# Anti-mAb316P antibody samples were analyzed using a validated non-quantitative, titer-based bridging immunoassay. It involved an initial screen, a confirmation assay based on drug specificity, and a measurement of the titer of anti-MAb316P antibodies in the sample. The lower limit of detection was approximately 1.5 ng/mL.
# Samples that were positive in the ADA assay were assessed for neutralizing antibodies using a validated, non-quantitative, competitive ligand binding assay. The lower limit of detection based on a monoclonal positive control neutralizing antibody is 390 ng/mL.
smiles,measurement,setting,value
"O=C1[C@H](CC[C@H](O)c2ccc(F)cc2)[C@@H](c2ccc(O)cc2)N1c1ccc(F)cc1 [ezetimibe, reference compound]",Apo A-1 LS mean (SE) % change from baseline to week 24,[1]; ITT,−0.6 (1.6) %
same,Apo B LS mean (SE) % change from baseline to week 24,[1]; ITT,−11.0 (2.4) %
same,HDL-C LS mean (SE) % change from baseline to week 24,[1]; ITT,1.6 (1.9) %
same,Non-HDL-C LS mean (SE) % change from baseline to week 24,[1]; ITT,−15.1 (2.9) %
same,Total cholesterol LS mean (SE) % change from baseline to week 24,[1]; ITT,−10.9 (2.2) %
same,Lp(a) adjusted mean (SE) % change from baseline to week 24,[1]; ITT,−12.3 (3.8) %
same,TGs adjusted mean (SE) % change from baseline to week 24,[1]; ITT,−10.8 (4.3) %
same,LDL-C LS mean (SE) Week 24 change from baseline (%),"[1]; ITT, excluding post up-titration data from patients up-titrated having LDL-C <100 mg/dL",−15.6%
same,LS mean (SE) percent reductions in LDL-C from baseline to week 24,"[1]; ITT, given as reduction",16 (3) %
same,LDL-C reduction at week 12,"[1]; ITT, mAb316P 75 mg Q2W before up-titration, ezetimibe 10 mg daily",20 (3) % and 20%
same,Apo A-1 LS mean (SE) % change from baseline to week 24,[1]; On-treatment,−0.7 (1.6) %
same,Apo B LS mean (SE) % change from baseline to week 24,[1]; On-treatment,−11.5 (1.9) %
same,HDL-C LS mean (SE) % change from baseline to week 24,[1]; On-treatment,1.7 (1.9) %
same,Non-HDL-C LS mean (SE) % change from baseline to week 24,[1]; On-treatment,−16.6 (1.9) %
same,Total cholesterol LS mean (SE) % change from baseline to week 24,[1]; On-treatment,−12.0 (1.6) %
same,Lp(a) adjusted mean (SE) % change from baseline to week 24,[1]; On-treatment,−12.3 (4.0) %
same,TGs adjusted mean (SE) % change from baseline to week 24,[1]; On-treatment,−12.7 (4.2) %
same,"LDL-C (on treatment), mean (SD)",[1]; Week 4,109.9 (22.4) mg/dL
same,"LDL-C (on treatment), mean (SD)",[1]; Week 12,109.8 (25.2) mg/dL
same,"LDL-C (on treatment), mean (SD)",[1]; Week 24,113.4 (25.0) mg/dL
same,LDL-C LS mean (SE) change from baseline (%),[1]; ITT,−15.6%
same,LDL-C LS mean (SE) change from baseline (%),[1]; On-treatment,−17.2%
same,estimated proportions of patients with LDL-C reductions ≧50% at week 12,"[1]; before up-titration, ITT",3%
same,proportions of patients with LDL-C reductions ≧50% at week 12,"[1]; before up-titration, on-treatment analysis",2%
same,reduction in Lp(a),"[1]; current study, discussion",12%
same,LS mean (SE) LDL-C reductions from baseline to week 24,"[1]; on-treatment analysis, given as reduction",17 (2) %
same,LDL-C reduction at week 12,"[1]; on-treatment analysis, mAb316P 75 mg Q2W",20 (2) % and 20%
same,reduction in LDL-C at 12 weeks,"[1]; summary, mAb316P 75mg Q2W arm, monotherapy population",20%
same,patients with treatment emergent anti-drug antibodies,anti-mAb316P antibodies,not observed
